Three molecules from patent US20060205819A1, “Methods of treatment inflammatory bowel with lxr agonists” (priority 2003, published 2006) can be followed below.

The target of one assay is T1, LXRβ protein (Homo sapiens, UniProt P55055).
T1 sequence (P55055 1-460): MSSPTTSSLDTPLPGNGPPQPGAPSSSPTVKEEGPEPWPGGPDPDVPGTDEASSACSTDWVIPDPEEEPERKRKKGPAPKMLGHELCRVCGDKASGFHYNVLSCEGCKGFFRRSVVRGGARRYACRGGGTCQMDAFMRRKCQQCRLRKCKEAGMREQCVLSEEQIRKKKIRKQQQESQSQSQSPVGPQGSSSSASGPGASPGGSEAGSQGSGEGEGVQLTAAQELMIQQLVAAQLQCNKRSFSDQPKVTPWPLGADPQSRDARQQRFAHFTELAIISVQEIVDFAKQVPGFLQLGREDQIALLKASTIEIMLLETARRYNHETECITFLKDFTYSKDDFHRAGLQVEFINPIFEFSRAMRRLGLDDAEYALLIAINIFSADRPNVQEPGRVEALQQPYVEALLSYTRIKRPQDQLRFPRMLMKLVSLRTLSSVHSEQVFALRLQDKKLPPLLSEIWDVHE
The experiment in a line: LXRβ / SRC-1 peptide fluorescence assay (streptavidin-APC / Europium). It counts as biochemical. The conditions noted are these: 1 μM; over a background reading of 10000 fluorescence units. The protocol:
Other LXR agonists may be identified by assays such as those described in the above referenced patent applications, for example, the assays described in Examples 1 and 2 of PCT/US01/27622. Biotinylated LXRβ protein was incubated for 20-25 minutes at a concentration of 25 nM in assay buffer (50 mM KCl, 50 mM Tris-pH8, 0.1 mg/ml FAF-BSA, 10 mM DTT) with equimolar amounts of streptavidin-AlloPhycoCyanin (APC, Molecular Probes). At the same time, the biotinylated peptide comprising amino acids 675-699 of SRC-1 ([…]-CONH2) (SEQ ID NO: 5) at a concentration of 25 nM was incubated in assay buffer with a […] of streptavidin-labelled Europium (Wallac) for 20-25 minutes. After the initial incubations are completed, a 10 molar excess (250 nM) of cold biotin was added to each of the solutions to block the unattached streptavidin reagents. After 20 min at room temp, the solutions were mixed yielding a concentration of 12.5 nM for the dye-labelled LXRβ protein and SRC-1 peptide.
80 μL of the protein/peptide mixture was added to each well of an assay plate containing 20 μL of test compound. […] The plates were incubated at room temp in the dark for 4-12 hours and then counted on a Wallac Victor fluorescent plate reader. In this assay 1 μM 24(S), 25-epoxycholesterol gave a reading of 20000 fluorescence units over a background reading of 10000 fluorescence units. […]

The test system of a further assay is DSS-induced colitis. In words: DSS-induced colitis in mice, disease activity index (DAI) AUC. The assay is classed as in vivo, BALB/c mice. The conditions noted are these: for severity of DSS-induced colitis: p.o.; for AUC (0-12 day) / AUC (3-7 day) / AUC (7-10 day) / AUC (10-12 day): DAI curve AUC, 3% DSS mice, mean +/- SE; for inhibition at 3 mg/kg / inhibition at 10 mg/kg / inhibition at 30 mg/kg: Mus musculus, po, vs DSS + vehicle; for inhibition at 3 mg/kg: 3 mg/kg p.o. b.i.d.; for inhibition at 10 mg/kg: 10 mg/kg p.o. b.i.d.; for inhibition at 30 mg/kg: 30 mg/kg p.o. b.i.d. The method, then: Female, 10-week-old BALB/c mice (Charles River Japan) were used in this study. Colitis was induced by providing drinking water containing 3% dextran sulfate sodium (DSS, ICN Biomedicals Inc., M.W.=36,000-50,000) for 5 days. The administration of DSS was discontinued on day 5, and mice were given tap water alone for 7 days until on day 12.
The disease activity index (DAI) was determined in all animals, by scoring body weight, stool consistency and rectal bleeding as described by Murthy, S. N. S. (Digestive Diseases and Sciences, 38(9) p. 1722-1734(1993)). Severity of colitis was evaluated by area under the curve (AUC) calculated based on DAI curve ranged from day 3 to day 7 (AUC (3-7 day)), from day 7 to day 10 (AUC (7-10 day)), from day 10 to day 12 (AUC (10-12 day)) and from day 0 to day 12 (AUC (0-12 day)).
Ten mice were used in each group. Compound IIa and Compound Ia were suspended in 0.5% methylcellulose (MC) solution. Compound IIa 3 or 10 or 30 mg/kg or its vehicle (0.5% MC solution) was administered orally twice a day for 12 days from day 0. Compound Ia at 50 mg/kg was administered orally once a day for 12 days from day 0. The experimental groups were set up as follows:
• 3% DSS+vehicle (0.5% MC solution) 3% DSS+Compound IIa (3 mg/kg) 3% DSS+Compound IIa (10 mg/kg) 3% DSS+Compound IIa (30 mg/kg) 3% DSS+Compound Ia (50 mg/kg) * Mice which received tap water without DSS.

[1] abbreviates: read-out: Inhibition (%) of AUC (0-12 day).
The mark [2] stands for this setting: read-out: Inhibition (%) of AUC (3-7 day).
Where [3] appears, read: read-out: Inhibition (%) of AUC (7-10 day).
Where [4] appears, read: read-out: Inhibition (%) of AUC (10-12 day).

The structures appear in SMILES notation. Like-named read-outs stand apart in the source and are kept apart here. Marks after values point to notes of the source that are not given here.

For `C[C@H](CC[C@@H]1OC1(C)C)[C@H]1CC[C@H]2[C@@H]3CC=C4C[C@@H](O)CC[C@]4(C)[C@H]3CC[C@]12C` [24(S), 25-epoxycholesterol], the reading on LXRβ protein is recorded as 20000 fluorescence units.

For orientation: inhibition means the percentage by which the read-out fell short of the control. Take `O=C(O)Cc1cccc(OCCCN(Cc2cccc(C(F)(F)F)c2Cl)CC(c2ccccc2)c2ccccc2)c1` [Compound IIa, 2-(3-{3-[[2-Chloro-3-(trifluoromethyl)benzyl](2,2-diphenylethyl)amino]propoxy}-phenyl)acetic acid]: the “severity of DSS-induced colitis” value with DSS-induced colitis (3, 10 and 30 mg/kg, b.i.d., significantly lower AUC compared with vehicle-treated DSS-fed mice) was “suppressed the severity of DSS-induced colitis”. In addition, the entries for the “AUC (0-12 day)” value in the assay on DSS-induced colitis (3 mg/kg p.o. b.i.d. 12 days), in the assay on DSS-induced colitis (10 mg/kg p.o. b.i.d. 12 days) and in the assay on DSS-induced colitis (30 mg/kg p.o. b.i.d. 12 days) were 14.02 +/− 1.56, 11.25 +/− 1.42** and 11.70 +/− 1.32*, respectively. The “AUC (3-7 day)” value with DSS-induced colitis (3 mg/kg p.o. b.i.d. 12 days) is reported as 4.93 +/− 0.38**; in the assay with DSS-induced colitis (10 mg/kg p.o. b.i.d. 12 days) it was 4.60 +/− 0.40**; with DSS-induced colitis (30 mg/kg p.o. b.i.d. 12 days) it was 4.70 +/− 0.36**. The “AUC (7-10 day)” value in the assay with DSS-induced colitis (3 mg/kg p.o. b.i.d. 12 days) is given as 5.05 +/− 0.75; in the assay on DSS-induced colitis (10 mg/kg p.o. b.i.d. 12 days), 3.70 +/− 0.62*; in the assay with DSS-induced colitis (30 mg/kg p.o. b.i.d. 12 days), 3.94 +/− 0.62. Moreover, the “AUC (10-12 day)” value in the assay on DSS-induced colitis (3 mg/kg p.o. b.i.d. 12 days) is given as 2.73 +/− 0.55; in the assay on DSS-induced colitis (10 mg/kg p.o. b.i.d. 12 days), 1.70 +/− 0.37; in the assay on DSS-induced colitis (30 mg/kg p.o. b.i.d. 12 days), 1.67 +/− 0.44. Further, the inhibition at 3 mg/kg with DSS-induced colitis (setting [1]) came out at 22%; with DSS-induced colitis (setting [2]), 28.2%; in the assay on DSS-induced colitis (setting [3]), 20.5%; in the assay on DSS-induced colitis (setting [4]) it was 14.7%. Also, the inhibition at 10 mg/kg in the assay with DSS-induced colitis (setting [1]) is 37.4%; with DSS-induced colitis (setting [2]) it was 33%; with DSS-induced colitis (setting [3]), 41.7%; in the assay on DSS-induced colitis (setting [4]), 46.9%. In addition, the inhibition at 30 mg/kg was found to be 34.9% in the assay with DSS-induced colitis (setting [1]), 31.6% in the assay with DSS-induced colitis (setting [2]), 38% with DSS-induced colitis (setting [3]) and 47.8% in the assay on DSS-induced colitis (setting [4]).

`O=S(=O)(c1ccccc1)N(CC(F)(F)F)c1ccc(C(O)(C(F)(F)F)C(F)(F)F)cc1` [Compound Ia]: in the assay with DSS-induced colitis (50 mg/kg, q.d., significant lower AUC (3-7 day) and AUC (0-12 day) compared with vehicle-treated DSS-fed mice), the “severity of DSS-induced colitis” value is “inhibited the severity of DSS-induced colitis”. Besides, in the assay with DSS-induced colitis (50 mg/kg p.o. q.d. 12 days), the “AUC (0-12 day)” value is given as 12.33 +/− 1.40*, the “AUC (3-7 day)” value is 4.80 +/− 0.38**, the “AUC (7-10 day)” value is listed as 4.25 +/− 0.72 and the “AUC (10-12 day)” value was 1.98 +/− 0.45.
